In ChEMBL document CHEMBL5523746, “Discovery of Novel Peptide Antagonists Targeting GPR55 for Liver Inflammation and Fibrosis” (2024):
Active and inactive are the calls of the source. Bridge positions count the residues as written; N and C are the ends. Peptide text beside a SMILES is read from it.

Assays:
Assay type in all cases: functional, organism-based
[1] = test system: Mus musculus; assay: In vivo anti-fibrotic activity against CCl4-induced liver fibrosis C57BL/6J mouse model assessed as decrease in inflammation at 150 to 300 microg/kg once daily for 3 weeks by IHC staining based assay; settings: dose 150-300 µg/kg
[2] = test system: Mus musculus; assay: Reduction in fatty acid synthesis related gene expression in methionine and choline-deficient (MCD) diet-induced liver C57BL/6J fibrosis mouse model assessed as reduction in FATP1 mRNA level at 150 to 300 microg/kg once daily for 3 weeks by qPCR analysis; settings: dose 150-300 µg/kg
[3] = test system: Mus musculus; assay: In vivo anti-fibrotic activity against CCl4-induced liver fibrosis C57BL/6J mouse model assessed as reduction in hepatocyte apoptosis at 300 microg/kg once daily for 3 weeks by TUNEL assay; settings: dose 300.0 µg/kg
[4] = test system: Mus musculus; assay: In vivo anti-fibrotic activity against CCl4-induced liver fibrosis C57BL/6J mouse model assessed as decrease in steatosis and inflammation at 150 to 300 microg/kg once daily for 3 weeks by H and E staining based assay; settings: dose 150-300 µg/kg
[5] = test system: Mus musculus; assay: In vivo anti-fibrotic activity against CCl4-induced liver fibrosis C57BL/6J mouse model assessed as decrease in alpha-SMA at 150 to 300 microg/kg once daily for 3 weeks by IHC staining based assay; settings: dose 150-300 µg/kg
[6] = test system: Mus musculus; assay: In vivo anti-fibrotic activity against CCl4-induced liver fibrosis C57BL/6J mouse model assessed as reduction in hepatocyte apoptosis by measuring increase in BAX protein in cytoplasm at 300 microg/kg once daily for 3 weeks; settings: dose 300.0 µg/kg
[7] = test system: Mus musculus; assay: In vivo anti-fibrotic activity against CCl4-induced liver fibrosis C57BL/6J mouse model assessed as reduction in hepatocyte apoptosis by measuring decrease in BAX protein level at 300 microg/kg once daily for 3 weeks by TUNEL assay; settings: dose 300.0 µg/kg
[8] = test system: Mus musculus; assay: In vivo anti-fibrotic activity against CCl4-induced liver fibrosis C57BL/6J mouse model assessed as reduction in Acta2 mRNA level at 150 to 300 microg/kg once daily for 3 weeks by RT-qPCR analysis; settings: dose 150-300 µg/kg
[9] = test system: Mus musculus; assay: In vivo anti-fibrotic activity against CCl4-induced liver fibrosis C57BL/6J mouse model assessed as reduction in oxidative stress by measuring decrease in lipid oxidation product MDA at 150 to 300 microg/kg once daily for 3 weeks by enzyme activity assay; settings: dose 150-300 µg/kg
[10] = test system: Mus musculus; assay: Reduction in fatty acid synthesis related gene expression in methionine and choline-deficient (MCD) diet-induced liver fibrosis C57BL/6J mouse model assessed as reduction in FAS mRNA level at 150 to 300 microg/kg once daily for 3 weeks by qPCR analysis; settings: dose 150-300 µg/kg
[11] = test system: Mus musculus; assay: Induction of fatty acid beta-oxidation related gene expression in methionine and choline-deficient (MCD) diet-induced liver fibrosis C57BL/6J mouse model assessed as increase in MCAD mRNA level at 150 to 300 microg/kg once daily for 3 weeks by qPCR analysis; settings: dose 150-300 µg/kg
[12] = test system: Mus musculus; assay: In vivo anti-fibrotic activity against CCl4-induced liver fibrosis C57BL/6J mouse model assessed as increase in anti-apoptotic protein BCL2 level at 300 microg/kg once daily for 3 weeks by Western blot analysis; settings: dose 300.0 µg/kg
[13] = test system: Mus musculus; assay: In vivo anti-fibrotic activity against CCl4-induced liver fibrosis C57BL/6J mouse model assessed as liver function by measuring decrease in serum amino-transferase (ALT) at 150 to 300 microg/kg once daily for 3 weeks by bio-chemical analysis; settings: dose 150-300 µg/kg
[14] = test system: Mus musculus; assay: In vivo anti-fibrotic activity against CCl4-induced liver fibrosis C57BL/6J mouse model assessed as reduction in ROS treated once daily for 3 weeks by RT-qPCR analysis; settings: dose 150-300 µg/kg

Measured: Activity

CC[C@H](C)[C@@H]1NC(=O)[C@H]([C@@H](C)O)NC(=O)[C@@H]2CCCN2C(=O)[C@H](CO)NC(=O)[C@H](CC(N)=O)NC(=O)[C@H](CCCCN)NC(=O)[C@H](CCCCN)NC(=O)[C@@H](N)CSSC[C@@H](C(=O)O)NC1=O (H-CKKNSPTIC-OH; disulfide 1-9)
active: all assays above
